Experimental data published in BindingDB's records for doi:10.1016/j.bmcl.2007.01.064 (Vertex Pharmaceuticals, 2007).
pKi: −log10 of the molar value.

Molecular target: T1, Disintegrin and metalloproteinase domain-containing protein 17 [215-477,S266A,N452Q] (Homo sapiens, UniProt P78536, N452Q/S266A)
T1 construct: 215-477
Assay: TACE Inhibition Assay
Settings: pH 7.5; 22 °C
Experimental: The compounds were tested for TACE inhibition using fluorescence resonance energy transfer (FRET) assay. TACE catalyzed cleavage of the substrate peptide liberates the fluoropore from the proximity of the adjacent quenching moiety, and an increase in fluorescence signal results.

T1 sequence (P78536 215-477 S266A/N452Q): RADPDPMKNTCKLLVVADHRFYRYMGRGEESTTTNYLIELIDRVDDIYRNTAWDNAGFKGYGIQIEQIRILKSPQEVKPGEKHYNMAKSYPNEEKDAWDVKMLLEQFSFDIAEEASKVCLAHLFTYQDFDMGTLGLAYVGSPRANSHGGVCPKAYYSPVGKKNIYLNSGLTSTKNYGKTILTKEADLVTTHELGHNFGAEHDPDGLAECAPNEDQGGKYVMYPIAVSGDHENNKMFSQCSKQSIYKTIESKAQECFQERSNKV

CC#CCOc1ccc(S(=O)(=O)N(C)CCS)cc1 [4-(but-2-yn-1-yloxy)-N-methyl-N-(2-sulfanylethyl)benzene-1-sulfonamide]
pKi: 7.25
